Laboratory results: article PMC6515314 (Molecules, 2019)
Starred links: 1 amine or outer side, 2 acyl side, 3 side chain; linkers in the order of their positions; H or OH if unused. Non-standard residues stand in square brackets, D forms with d. Residues, ends and D or L forms follow the SMILES beside them. X1 = O=C([C@H](Cc1cncn1CCCCc1cn(Cc2c(F)cccc2Oc2ccccc2)nn1)N[*:1])[*:2]; X3 = O=C([C@H](Cc1cncn1CCCCc1cn(Cc2ccc(F)c(Cl)c2)nn1)N[*:1])[*:2]; X4 = O=C([C@H](Cc1cncn1CCCCc1cn(Cc2ccc(F)cc2)nn1)N[*:1])[*:2]; X2 = O=C([C@H](Cc1cncn1CCCCc1cn(Cc2ccccc2)nn1)N[*:1])[*:2]; X5 = C#CCCCCn1cncc1C[C@H](N[*:1])C(=O)[*:2]; pT = C[C@@H](OP(=O)(O)O)[C@H](N)C(=O)O; Pra = C#CC[C@H](N)C(=O)O

How the values were obtained:
Assay type in all cases: binding
[1] = molecular target: T1, Plk1 PBD (Homo sapiens, UniProt P53350); experiment: Fluorescence polarization (FP) assay, isolated Plk1 PBD; conditions: for IC50: FP assay, average ± SEM
T1 construct: a plasmid encoding myc-tagged Plk1 PBD was purchased from Addgene; host or cells: HEK-293T
Method: (§1) Plasmids encoding the myc-tagged PBDs of Plk2 and Plk3 were generous gifts from Prof. […] The supernatant containing expressed protein was diluted into 8 mL of PBS (pH 7.4) containing protease/phosphatase inhibitor cocktail. This protein solution was added to a 1 mL bed of myc-agarose resin (Thermo Scientific, Waltham, MA, USA) and allowed to bind for 2 h at 4 °C with gentle rotation. The lysate was eluted and the resin was washed 4× with 4-(2-hydroxyethyl)-1-piperazineethanesulfonic acid (HEPES) buffered saline (HBS) containing 0.05% Tween-20, 1 mM dithiothreitol (DTT) and 1 mM ethylenediaminetetraacetic acid (EDTA). The bound PBD protein was then eluted with a 1 mg/mL solution of myc peptide ([…]) in HBS + 1 mM DTT and 1 mM EDTA. […] The concentration of the final protein solution was determined by absorbance at 280 nm and purity was determined by SDS-PAGE (sodium dodecyl sulfate-polyacrylamide gel electrophoresis) with Coomassie staining.
As previously reported, isolated PBD protein was diluted to a 2× working dilution in assay buffer (HEPES-buffered saline with 0.05% Tween-20, 1 mM DTT, and 1 mM EDTA). […] Inhibitors were serially diluted to generate 4× working dilutions in assay buffer containing 4% DMSO. 20 μL of 2× PBD solution was added to each well of a 384-well plate (0% binding controls received 20 μL of assay buffer). 10 μL of the 4× inhibitor solution (or DMSO blank) was added to corresponding wells and allowed to pre-incubate at RT for 30 min with shaking. The following sequences were utilized as fluorescent probes: 5CF-GPMQSpTPLNG-NH2 for Plk1 PBD; 5CF-GPMQTSpTPKNG-NH2 for Plk2 PBD and 5CF-PLATSpTPKNG-NH2 for Plk3 PBD [10]. Fluorescent probes were diluted to 40 nM (4×) in assay buffer and then 10 μL was added to each well. The plate was allowed to equilibrate at room temperature for (30 min) with shaking. […] The FP values were obtained in triplicate and normalized to 100% (no inhibitor) and 0% binding (no protein) controls. Normalized values were plotted versus concentration and analyzed using non-linear regression in GraphPad Prism 8 (GraphPad Software, San Diego, CA, USA) [log(inhibitor) vs. response-variable slope (four parameter) model].

[2] = molecular target: T2, full-length Plk1 (Homo sapiens, UniProt P53350); experiment: ELISA assay using full-length Plk1
T2 construct: a plasmid encoding myc-tagged full-length Plk1 (Addgene, Plasmid #41160); host or cells: HEK-293T (crude cytosolic lysate, not purified)
Method: Following 48 h expression, cells were harvested, lysed in buffer (PBS, pH 7.4 with 0.5% NP-40 and protease/phosphatase inhibitor cocktail) using freeze/thaw cycles (3×) and centrifuged at 10,000× g for 10 min at 4 °C. The supernatant was removed to provide a crude cytosolic lysate containing overexpressed, myc-tagged Plk1 (total protein concentration determined by bicinchoninic acid (BCA) assay).
As previously reported [25, 26, 50] a biotinylated phosphopeptide (sequence: Biotin-Ahx-PMQS(pT)PLN-NH2) was diluted to 1 µM (from a 2 mM DMSO stock solution) in PBS (pH 7.4) and loaded onto the wells of a 96-well Neutravidin-coated plate (Pierce Biotechnology, ThermoFisher Scientific, Waltham, MA, USA) at 100 µL per well for 1 h (background control contained no biotinylated peptide). The wells were washed once with 150 µL PBST (PBS, pH 7.4 + 0.05% Tween-20), and then 100 µL of 1% BSA in PBS (pH 7.4) (blocking buffer) was added for 1 h. A cytosolic lysate-containing transiently expressed myc-tagged Plk1 protein was diluted to 300 µg/mL in PBS (pH 7.4) containing protease/phosphatase inhibitors (Pierce Biotechnology), mixed with competitive inhibitor (from a 10× stock in ~4% DMSO/PBS), and allowed to pre-incubate for 1 h (100 µL per well in a 96-well plate, 30 µg total protein). The blocked ELISA plate was washed 2× with PBST (PBS, pH 7.4 + 0.05% Tween-20) (150 µL) and the pre-incubated lysates were added to the plate and incubated (1 h). […] The wells were then washed 5× with PBST (150 µL) and incubated with Turbo TMB (3,3′,5,5′-tetramethyl benzidine substrate)-ELISA solution (Pierce Biotechnology) until the desired absorbance was reached (5–10 min). The reaction was quenched by the addition of 2 N aqueous H2SO4 and the absorbance was measured at 450 nm using a BioTek Synergy 2 96-well plate reader. Absorbance was plotted versus concentration (logM) and fit to a non-linear regression analysis using GraphPad Prism 8 software [model: log(inhibitor) vs. response-variable slope (four parameters)].

[3] = system: Plk2 PBD; experiment: Fluorescence polarization (FP) assay, isolated Plk2 PBD; conditions: average ± SEM
Method: as §1
(§2) As previously reported, isolated PBD protein was diluted to a 2× working dilution in assay buffer (HEPES-buffered saline with 0.05% Tween-20, 1 mM DTT, and 1 mM EDTA). […] Normalized values were plotted versus concentration and analyzed using non-linear regression in GraphPad Prism 8 (GraphPad Software, San Diego, CA, USA) [log(inhibitor) vs. response-variable slope (four parameter) model].

[4] = molecular target: T3, Plk3 PBD (Homo sapiens, UniProt Q9H4B4); experiment: Fluorescence polarization (FP) assay, isolated Plk3 PBD; conditions: average ± SEM
T3 sequence (Q9H4B4 418-646 limits assumed): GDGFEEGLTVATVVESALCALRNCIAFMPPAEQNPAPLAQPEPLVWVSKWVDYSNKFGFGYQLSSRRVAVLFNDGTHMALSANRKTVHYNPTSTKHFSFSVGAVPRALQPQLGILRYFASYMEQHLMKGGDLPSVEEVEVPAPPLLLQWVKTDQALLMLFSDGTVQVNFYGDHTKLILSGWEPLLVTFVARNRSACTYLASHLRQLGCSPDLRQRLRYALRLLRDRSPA
Method: as §1, §2

T2 sequence (P53350 whole entry): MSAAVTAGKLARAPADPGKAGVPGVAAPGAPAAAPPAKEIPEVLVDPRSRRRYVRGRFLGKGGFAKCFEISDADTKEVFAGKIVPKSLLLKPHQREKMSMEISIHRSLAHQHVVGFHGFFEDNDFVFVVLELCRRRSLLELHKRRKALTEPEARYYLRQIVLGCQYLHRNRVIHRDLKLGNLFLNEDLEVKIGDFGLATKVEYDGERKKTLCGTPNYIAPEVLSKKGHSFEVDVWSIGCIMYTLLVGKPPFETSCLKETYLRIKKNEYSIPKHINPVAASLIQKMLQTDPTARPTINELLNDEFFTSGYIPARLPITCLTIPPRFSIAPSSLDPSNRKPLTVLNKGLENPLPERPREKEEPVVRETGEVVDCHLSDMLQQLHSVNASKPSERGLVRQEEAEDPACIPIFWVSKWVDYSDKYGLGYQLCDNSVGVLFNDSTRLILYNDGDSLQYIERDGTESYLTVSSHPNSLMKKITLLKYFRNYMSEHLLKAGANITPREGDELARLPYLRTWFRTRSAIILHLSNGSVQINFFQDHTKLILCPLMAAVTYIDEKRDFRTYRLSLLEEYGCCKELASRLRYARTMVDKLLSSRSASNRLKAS
T1 sequence (P53350 326-603 limits assumed): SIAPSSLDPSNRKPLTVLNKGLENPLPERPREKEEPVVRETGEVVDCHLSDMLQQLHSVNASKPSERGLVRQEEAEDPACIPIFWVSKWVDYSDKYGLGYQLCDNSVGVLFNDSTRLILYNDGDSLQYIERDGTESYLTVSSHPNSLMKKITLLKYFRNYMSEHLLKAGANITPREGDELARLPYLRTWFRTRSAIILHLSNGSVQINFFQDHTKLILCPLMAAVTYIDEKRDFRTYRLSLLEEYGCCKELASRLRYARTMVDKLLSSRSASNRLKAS

Structure (SMILES): C#CCCCCn1cncc1C[C@H](NC(=O)[C@H](CC(C)C)NC(=O)[C@@H]1CCCN1C(C)=O)C(=O)N[C@@H](CO)C(=O)N[C@H](C(N)=O)[C@@H](C)OP(=O)(O)O [Peptide 13] (Ac-PL[X5]S[pT]-NH2)
- IC50 [1]: 1100 ± 45 nM

Structure (SMILES): CC(=O)N1CCC[C@H]1C(=O)N[C@@H](CC(C)C)C(=O)N[C@@H](Cc1cncn1CCCCc1cn(Cc2ccccc2)nn1)C(=O)N[C@@H](CO)C(=O)N[C@H](C(N)=O)[C@@H](C)OP(=O)(O)O [Peptide 3a] (Ac-PL[X2]S[pT]-NH2)
- relative loss of Plk1 PBD-binding affinity versus peptide 2a ([1]; FP): ~8 fold
- IC50 [1]: 110 ± 6.6 nM

Structure (SMILES): CC(=O)N1CCC[C@H]1C(=O)N[C@@H](CC(C)C)C(=O)N[C@@H](Cc1cncn1CCCCc1cn(Cc2ccc(F)c(Cl)c2)nn1)C(=O)N[C@@H](CO)C(=O)N[C@H](C(N)=O)[C@@H](C)OP(=O)(O)O [Peptide 3c] (Ac-PL[X3]S[pT]-NH2)
- IC50 [1]: 130 ± 9.8 nM

Structure (SMILES): C#CC[C@H](NC(=O)[C@H](CC(C)C)NC(=O)[C@@H]1CCCN1C(C)=O)C(=O)N[C@@H](CO)C(=O)N[C@H](C(N)=O)[C@@H](C)OP(=O)(O)O [Peptide 17] (Ac-PL[Pra]S[pT]-NH2)
- loss of Plk1 PBD-binding affinity compared with parent peptide 1 ([1]; FP): ~2 fold
- IC50 [1]: 1000 ± 140 nM

Structure (SMILES): CC(=O)N1CCC[C@H]1C(=O)N[C@@H](CC(C)C)C(=O)N[C@@H](Cc1cncn1CCCCc1cn(Cc2ccc(F)cc2)nn1)C(=O)N[C@@H](CO)C(=O)N[C@H](C(N)=O)[C@@H](C)OP(=O)(O)O [Peptide 3b] (Ac-PL[X4]S[pT]-NH2)
- IC50 [1]: 100 ± 19 nM

Structure (SMILES): CC(=O)N1CCC[C@H]1C(=O)N[C@@H](CC(C)C)C(=O)N[C@@H](Cc1cncn1CCCCc1cn(Cc2c(F)cccc2Oc2ccccc2)nn1)C(=O)N[C@@H](CO)C(=O)N[C@H](C(N)=O)[C@@H](C)OP(=O)(O)O [Peptide 3d] (Ac-PL[X1]S[pT]-NH2)
- IC50 ([2]; ELISA, myc-tagged full-length Plk1 lysate, ± SEM, read-out: IC50 (nM) against full-length Plk1): 12000 ± 2100 nM
- Fold-change relative to isolated PBD value ([2]; full-length Plk1 ELISA IC50 vs isolated PBD FP IC50): 480 ×
- potency reduction in the full-length assay relative to the isolated PBD assay ([2]; full-length Plk1 ELISA vs isolated PBD FP): 480 fold
- IC50 [3]: 5900 ± 420 nM
- IC50 [1]: 25 ± 1.6 nM
- IC50 [4]: 9900 ± 2200 nM
